Tests used:
AMPKα2β1γ1 complex = molecular target: T1, AMPKα2β1γ1 complex (Homo sapiens, UniProt P54646+Q9Y478); experiment: HTRF KinEASE activity assay with bacterially-expressed, phosphorylated purified AMPKα2β1γ1; assay type: biochemical; details: varying concentrations, 30 mins incubation, cell free; FIG. 1
T1 construct: His; made in house
Method: Varying concentrations of compound 1 and compound 2 were incubated with phosphorylated purified AMPK α2β1γ1 for 30 mins. AMPK activity was determined using the HTRF KinEASE assay kit and results are presented as the ratio of 665/620 nm (STK1 phosphorylation).
The AMPKα2β1γ1 complex was expressed in bacteria and purified through the His-α subunit by nickel purification, purified through gel filtration and phosphorylated by incubation with CaMKKβ, and then further purified through a final gel filtration purification step. Phosphorylated purified AMPK was incubated with varying concentrations of ligand for 30 mins along with substrate and reagents from the HTRF-KinEASE Cisbio assay kit (STK S1 Kit). Phosphorylation of the substrate was measured by incubating with donor and acceptor antibodies for 2 h at room temperature as per the manufacturer's protocol (Coulerie et al., (2016), J Nat Prod. 2016 Nov. 23; 79(11):2856-2864. Epub 2016 Oct. 28.) and phosphorylated peptide detected by performing HTRF. […] Compound 1 is 3-methoxy-6H-benzo[c]chromene-1,8-diol and Compound 2 is 8-methoxy-6H-benzo[c]chromene-3,10-diol.

[1] = system: AMPK (phosphorylation of ACC) in U-2 OS Flp-In T-REx mammalian cells; experiment: pACC HTRF (Cisbio) assay in U-2 OS Flp-In T-REx cells; assay type: cell-based; details: varying concentrations, 30 mins at 37 C, FIG. 2
Method: U-2 OS cells were treated with varying concentrations of compound 1 or compound 2 for 30 mins at 37 C. Phosphorylation of ACC was assessed using the HTRF Cisbio (pACC kit).
U-2 OS Flp-In T-REx cells were seeded at 50 K in a 96-well plate and left overnight at 37 C in DMEM GlutaMAX (Thermo Fisher Scientific) supplemented with 10% (vol/vol) FBS and 100 U/ml penicillin G, and 100 μg/ml streptomycin. Cells were treated for 30 mins with varying concentrations of Compound 1 in media lacking FBS and then cells were lysed in 50 μl of Cisbio lysis buffer #1 supplemented with blocking solution as per the manufacturer's protocol (Cisbio). Cells were lysed for 30 mins at room temperature before 16 μl of lysate was incubated with 4 μl of the HTRF antibodies (1:40 dilution of the acceptor and donor (p) ACC antibodies, as per the manufacturers protocol). Lysates were incubated overnight with the antibodies before 665 nm/620 nm ratio was determined using a MolecularDevices i3 plate reader (with a HTRF cartridge add-on). The results are plotted as fold activation compared to the respective AMPK complex without any compound.

[2] = system: AMPK complexes containing β1 WT subunit; experiment: pACC HTRF assay in AMPKβ1/β2 double knockout U-2 OS cells stably expressing β1 WT; assay type: cell-based, human; details: AMPKβ1β2 double knockout cells stably expressing β1 WT, varying concentrations, 30 mins at 37 C; FIG. 3 and FIG. 4
Method: (§1) The β1 WT or β1 S108A mutant were stably expressed in AMPKβ1β2 double knockout cells and treated with varying concentrations of compound 1 or compound 2 for 30 mins at 37 C. Phosphorylation of ACC was assessed using the HTRF Cisbio (pACC kit).
(§2) U-2 OS cells AMPKβ1β2 double knockout cells stably expressing AMPK β1 or β2 were treated with varying concentrations of Compound 1 or compound 2 for 30 mins at 37 C.
(§3) Phosphorylation of ACC was assessed using the HTRF Cisbio (pACC kit).
(§4) AMPKβ1/β2 double knockout U-2 OS Flp-In™ T-Rex™ cell lines were generated and cells were genotyped and analysed by Western blotting to confirm that there was a complete knockout of AMPKβ1/β2. We took these AMPKβ1/β2 double knockout cells, and re-introduced the expression of human β1 wild-type (WT) or a β1 Serine 108 to alanine mutation (S108A). This was achieved using the Flp-In™ system (Invitrogen) present in this cell line and stable cells expressing β1 WT or a β1 S108A mutant were generated according to the manufacturers' protocols.
(§5) Cells stably expressing β1 WT or a β1 S108A mutant were treated with varying concentrations of compound 1 and compound 2 and subjected to the pACC HTRF (Cisbio) assay to determine the level of phosphorylation of the AMPK substrate, ACC, in cell lysates, as in Example 2.
We took AMPKβ1/β2 double knockout cells, and re-introduced the expression of human β1 WT or β2 WT isoforms. […]

[3] = system: AMPK complexes containing β1 S108A mutation at the ADaM site; experiment: pACC HTRF assay in AMPKβ1/β2 double knockout U-2 OS cells stably expressing β1 S108A mutant; assay type: cell-based, human; details: AMPKβ1β2 double knockout cells stably expressing β1 S108A mutant, varying concentrations, 30 mins at 37 C; FIG. 3
Method: as §1, §4, §5

[4] = system: AMPK complexes containing the β2 isoform subunit; experiment: pACC HTRF assay in AMPKβ1/β2 double knockout U-2 OS cells stably expressing β2 WT; assay type: cell-based, human; details: AMPKβ1β2 double knockout cells stably expressing β2 WT isoform, varying concentrations, 30 mins at 37 C; FIG. 4
Method: as §2, §3
We took AMPKβ1/β2 double knockout cells, and re-introduced the expression of human β1 WT or β2 WT isoforms. […] Cells stably expressing β1 WT or β2 WT were treated with varying concentrations of compound 1 and compound 2, and subjected to the pACC HTRF (Cisbio) assay to determine the level of phosphorylation of the AMPK substrate, ACC, in cell lysates, as in example 2. […] This activation profile is characteristic of activators that bind to the ADaM site and consistent with previous studies showing that ADaM-site activators have poorer activation of β2-containing complexes in vitro and in cells.

T1 sequence (P54646 whole entry): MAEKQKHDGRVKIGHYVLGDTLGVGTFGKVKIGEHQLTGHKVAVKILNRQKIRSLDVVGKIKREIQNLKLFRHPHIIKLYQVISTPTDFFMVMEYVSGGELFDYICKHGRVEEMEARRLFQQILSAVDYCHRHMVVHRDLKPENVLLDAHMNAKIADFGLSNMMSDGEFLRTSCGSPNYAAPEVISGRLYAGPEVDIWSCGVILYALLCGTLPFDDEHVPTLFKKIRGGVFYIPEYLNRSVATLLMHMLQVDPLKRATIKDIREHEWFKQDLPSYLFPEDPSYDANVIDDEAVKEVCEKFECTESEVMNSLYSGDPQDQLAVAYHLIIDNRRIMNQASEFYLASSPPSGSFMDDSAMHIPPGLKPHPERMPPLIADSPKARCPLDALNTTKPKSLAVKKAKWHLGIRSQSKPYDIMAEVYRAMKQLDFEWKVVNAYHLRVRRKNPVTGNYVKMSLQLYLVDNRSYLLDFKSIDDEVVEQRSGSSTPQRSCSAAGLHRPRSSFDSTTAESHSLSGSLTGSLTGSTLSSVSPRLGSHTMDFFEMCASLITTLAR
T1 sequence (Q9Y478 whole entry): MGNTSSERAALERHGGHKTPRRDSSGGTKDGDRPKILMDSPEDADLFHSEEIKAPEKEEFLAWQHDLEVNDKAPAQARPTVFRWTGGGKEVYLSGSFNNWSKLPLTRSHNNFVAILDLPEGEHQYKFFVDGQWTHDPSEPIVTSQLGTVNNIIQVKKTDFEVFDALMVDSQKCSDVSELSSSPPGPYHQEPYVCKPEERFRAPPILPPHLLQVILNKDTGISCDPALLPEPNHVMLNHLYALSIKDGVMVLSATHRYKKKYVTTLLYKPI
T1 sequence (P54619 whole entry partner): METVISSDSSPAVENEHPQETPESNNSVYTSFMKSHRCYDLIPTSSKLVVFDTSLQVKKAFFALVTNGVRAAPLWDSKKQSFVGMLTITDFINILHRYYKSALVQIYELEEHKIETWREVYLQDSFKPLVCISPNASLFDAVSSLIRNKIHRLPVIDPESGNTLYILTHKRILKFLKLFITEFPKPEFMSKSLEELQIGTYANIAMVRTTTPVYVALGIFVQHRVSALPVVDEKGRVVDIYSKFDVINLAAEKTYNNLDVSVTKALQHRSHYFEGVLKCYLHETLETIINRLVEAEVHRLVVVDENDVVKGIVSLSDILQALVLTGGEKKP

Row | SMILES | AMPK activity (665 nm/620 nm ratio, STK1 substrate phosphorylation) (AMPKα2β1γ1 complex) | Phosphorylation of ACC (fold activation relative to untreated cells) [1] | Phosphorylation of ACC (pACC, fold increase relative to untreated cells) [2] | Phosphorylation of ACC (pACC, fold increase relative to untreated cells) [3] | Phosphorylation of ACC (pACC, fold increase relative to untreated cells) [4]
1 | COc1cc(O)c2c(c1)OCc1cc(O)ccc1-2 [Compound 1, 3-methoxy-6H-benzo[c]chromene-1,8-diol] | allosterically activate AMPKα2β1γ1 in a dose-dependent manner | increase the phosphorylation of the AMPK substrate, ACC, in a dose-dependent manner | able to dose-dependently increase pACC | not able to increase pACC | not able to increase pACC
2 | COc1cc(O)c2c(c1)COc1cc(O)ccc1-2 [Compound 2, 8-methoxy-6H-benzo[c]chromene-3,10-diol] | allosterically activate AMPKα2β1γ1 in a dose-dependent manner | increase the phosphorylation of the AMPK substrate, ACC, in a dose-dependent manner | able to dose-dependently increase pACC | not able to increase pACC | not able to increase pACC

Reference: patent US20230026772A1, “DIBENZOPYRAN AMPK ACTIVATOR COMPOUNDS, COMPOSITIONS, METHODS AND USES THEREOF” (SOCIETE DES PRODUITS NESTLE S.A., priority 2019, published 2023)
